From patent US20220259556A1, “METHOD FOR OBTAINING IMMUNO-SUPPRESSIVE DENDRITIC CELLS” (Transimmune AG, priority 2013, published 2022)
“Also recorded” adds a separate entry of the source. Ends that are not written are not given here.

How the values were obtained:
[1] = tested on: MoDC; assay: Immunophenotyping of MoDC (HLA-DR, CD80, CD83, CD86, intracellular GILZ); assay type: cell-based, human; settings: product of 8-MOP and UVA exceeded 100; 24 hr after PUVA
Protocol: (§1) Lymphocytes were treated with 8-MOP (100 ng/mL) and UVA (1 J/cm^2), washed with PBS, and co-cultured in complete media at 37° C. and 5% CO2 with either PUVA-treated or untreated-MoDC in a ratio of 5 or 10 lymphocytes to 1 MoDC. MoDC treated for 24 hr with 100 nM dexamethasone (Sigma) served as the positive control group. After 24 hr, cells were harvested and MoDC were re-purified. […] CD11c^+ MoDC were re-plated at 0.5-1.0×10^6 cells/mL in complete media and stimulated with 100 ng/mL LPS (Sigma). 24 hr after LPS stimulation, cells were harvested for RNA isolation and immunophenotyping, and supernatants were collected for cytokine quantification.
Monoclonal antibodies included HLA-DR, CD80, CD83, CD3, CD86, CD14, CD11c and GILZ. Antibodies were obtained from Beckman-Coulter and eBioscience and were used at their pre-determined optimal dilutions. Apoptosis was assessed using the Annexin-V Apoptosis Detection Kit (eBioscience), with Annexin-V recognizing phosphatidylserine (PS) on the surface of apoptotic cells. 7-AAD substituted for PI as the cell viability dye. Cells displaying an Annexin-V^+/7-AAD^− phenotype were classified as early apoptotic cells, and cells displaying an Annexin-V^+/7-AAD^+ phenotype were classified as late apoptotic cells. Dual membrane and intracytoplasmic staining was performed using the IntraPrep fix and permeabilization kit (Beckman-Coulter). Background staining was established with appropriate isotype and fluorescence minus one controls. Immunofluorescence was analyzed using a FACSCalibur L (BD Biosciences) within 2 hr of fixation with 2% paraformaldehyde. A minimum of 10,000 events were collected for each group.

[2] = tested on: lymphocytes; assay: Apoptosis of lymphocytes (Annexin-V/7-AAD); assay type: cell-based, human; settings: 1 J/cm^2 and 100 ng/mL
Protocol: as §1
Monoclonal antibodies included HLA-DR, CD80, CD83, CD3, CD86, CD14, CD11c and GILZ. Antibodies were obtained from Beckman-Coulter and eBioscience and were used at their pre-determined optimal dilutions. Apoptosis was assessed using the Annexin-V Apoptosis Detection Kit (eBioscience), with Annexin-V recognizing phosphatidylserine (PS) on the surface of apoptotic cells. 7-AAD substituted for PI as the cell viability dye. […] Background staining was established with appropriate isotype and fluorescence minus one controls. Immunofluorescence was analyzed using a FACSCalibur L (BD Biosciences) within 2 hr of fixation with 2% paraformaldehyde. […]

[3] = tested on: GILZ; assay: GILZ expression in plate-passed PBMC treated with 8-MOP and UVA; assay type: cell-based; settings: monocytes physically activated by passage through device, then 8-MOP and UVA
Protocol: Monocytes were passed through a device derived from the Therakos system. The dimensions of the flow chamber were 30 mm width, 1600 mm length, and 1 mm height. In brief, a blood sample was spun at low speed through a Ficoll gradient to obtain e.g. 80 ml of sample with a concentration of peripheral blood mononuclear cells (PBMC) of e.g. 1.5*10^6 cells/ml. The chamber was pre-coated with platelets. The sample was passed through the chamber for 60 min at a flow rate of about 24 ml/min corresponding to a shear stress of about 0.13 Pa. The collected activated monocytes were spun at low speed and resuspended in a small volume of medium comprising 8-MOP and irradiated with […], incubated for a day and used for further analysis (Day 1PBMC+PP). As a control PBMCs were not passed through the device and incubated for a day (Day 1 PBMC). Further, PBMC were analyzed directly after harvest through a Ficoll gradient (Day0 PBMC). Day 1 PBMC+PP were then further treated with 8-MOP and UVA (PUVA). The cells and controls were then analyzed for expression of GILZ.

[4] = tested on: platelets; assay: Platelet adhesion studies in Vena8 flow chamber; assay type: cell-based, human
Protocol: For experiments not involving the collection and phenotyping of cells post-flow, Vena8 biochips (Cellix Ltd, Dublin, Ireland) were used to generate laminar flow. The volumetric flow path for a channel of the Vena8 biochips measured 20000×400×100 microns (length×width×height). Protein coating of these chips is described in the appropriate section below.
Platelet adhesion experiments were performed using the Vena8 flow chamber described above. Fibrinogen and fibronectin (Sigma) were dissolved in PBS to a final concentration of 200 mcg/ml. Channels of the Vena8 chips were incubated at room temperature in a humidified chamber for 2 hours with the protein solution, autologous plasma, or PBS alone. The channels were washed with 5× the volume RPMI. Platelet-rich-plasma was then perfused through the protein-coated channel at the indicated shear-stress, held constant. For each channel, still images were acquired exactly 90 seconds into the experiment at 4 pre-defined low power fields located along the flow path (fields were centered at 2500, 7500, 12500, and 17500 microns from the start point of infusion).
Some experiments involved pre-treating platelet-rich-plasma with protein fragments prior to infusion through the channels. Small RGD peptides, containing the amino-acid sequence Arg-Gly-Asp-Ser; DRG peptides, contain the amino-acid sequence Ser-Asp-Gly-Arg; or fragment 400-411 of fibrinogen, containing the amino-acid sequence His-His-Leu-Gly-Gly-Ala-Lys-Gln-Ala-Gly-Asp-Val, were incubated at a concentration of 2 mM with PRP for 20 minutes at room temperature. The PRP was then perfused through the channels as previously described.

[5] = tested on: monocytes; assay: Static co-cultures of platelets with monocytes; assay type: cell-based, human; settings: static conditions, 18 hours
Protocol: Experiments involving co-cultures of monocytes with additional platelets were performed as described in the Overnight Culture section, with a few necessary modifications. Following Ficoll-Hypaque separation, mononuclear cells were resuspended in 30% AB serum/RMPI to a final concentration of 10×10^6 cells/ml, of which 1 ml was allocated to each well of a 16-well plate. An additional 1 ml of platelets (suspended in RPMI, at 2× the desired final concentration) or RPMI without platelets was then added to each well. To activate platelets, 500 μl containing 2 units of thrombin was added to half the wells, and 500 μl of RPMI was added to the others to balance the volume. Cells were then incubated as described previously.

COc1c2occc2cc2ccc(=O)oc12 [8-MOP, 8-methoxypsoralen]
Reduction of CD80 cell surface expression [1]: 30% | Reduction of CD83 cell surface expression [1]: 31% | Reduction of CD86 cell surface expression [1]: 54% | Time to Annexin-V display by lymphocytes [2]: 2 h | GILZ expression / differentiation of activated monocytes [3]: can be channeled into immuno-suppressive dendritic cells; also recorded: increase of expression of GILZ

Arg-Gly-Asp-Ser (RGDS; printed: Arg-Gly-Asp-Ser) [RGD peptides, Small RGD peptides]
Platelet adhesion to fibronectin-coated plates ([4]; platelets (PRP) pre-incubated with 2 mM peptide for 20 minutes, flow): decreased

HHLGGAKQAGDV [fragment 400-411 of fibrinogen]
Platelet adhesion to fibrinogen-coated plates ([4]; platelets (PRP) pre-incubated with 2 mM peptide for 20 minutes, flow, listed as gamma fragments): decreased

fibrinogen
Platelet adhesion to plates pre-coated with the protein ([4]; unactivated platelets in flow, wall shear stress 0.2 to 6.0 dyne/cm^2): highest concentrations of platelets adhered

thrombin
Monocyte differentiation versus cultures with platelets not activated by thrombin [5]: did not cause a discernible difference
